Source: patent US6645983B1, “Pharmaceutical compositions comprising 4-quinolones for treating cancers” (Laboratoire L. Lafon, priority 1999, dated 2003)

Key:
HCT-15 = assay: MTT test, cytotoxic activity on non-clonogenic cell lines; type: cell-based; details: Homo sapiens, 10^−5 M, 72 hours of incubation, control condition = 100%, mean value, read-out: mean optical density as percentage of control, HCT-16
Description: (§1) The principle of the MTT test is based on the mitochondrial reduction, by the metabolically active live cells, of the yellow-colored product MTT (3-(4,5-dimethylthiazol-2-yl)-2,5-diphenyltetrazolium bromide) to a blue-colored product, formazan. The amount of formazan thus obtained is directly proportional to the amount of live cells present in the culture well(s). This amount of formazan is measured by spectrophotometry.
(§2) The cell lines are maintained as a monolayer culture at 37° C. in stoppered culture dishes containing MEM 25 MM HEPES (Minimum Essential Medium) base medium. This medium is suited to the growth of a range of various mammalian diploid or primary cells. This medium is then supplemented with:
(§3) The 12 human cancer cell lines which were used were obtained from the American Type Culture Collection (ATCC, Rockville, Md., USA). These 12 cell lines are:
(§4) Experimentally, 100 μl of a cell suspension containing 20 000 to 50 000 (depending on the cell type used) cells/ml of culture medium are inoculated -in 96-well flat-bottomed multi-well plates and are left to stand in an incubator at 37° C., 5% CO2 and 70% humidity. After an incubation time of 24 hours, the culture medium is replaced with 100 μl of fresh medium containing either the various test compounds—at concentrations varying from 10^−5 to 10^−10 M—or the solvent having served for dissolving the products to be tested (control condition). […] The microplates are thus incubated for 3 hours at 37° C., then centrifuged for 10 minutes at 400 g. The yellowish solution of MTT is removed and the blue formazan crystals formed in the cell region are dissolved in 100 μl or DMSO. The microplates are then shaken for 5 minutes. […] Software incorporated in the spectrophotometer calculates the average optical density values and the standard deviation (SD) and standard error of mean (SEM) values.

T-47D = assay: as above; type: cell-based; details: Homo sapiens, T47D; 10^−5 M, 72 hours of incubation, control condition = 100%, mean value; read-out: mean optical density as percentage of control, T-47D
Description: as §1, §2, §3, §4

U-373MG = assay: as above; type: cell-based; details: Homo sapiens, U373 MG; 10^−5 M, 72 hours of incubation, control condition = 100%, mean value; read-out: mean optical density as percentage of control, U-373MG
Description: as §1, §2, §3, §4

A-427 = assay: as above; type: cell-based; details: Homo sapiens, 10^−5 M, 72 hours of incubation, control condition = 100%, mean value, read-out: mean optical density as percentage of control, A-427
Description: as §1, §2, §3, §4

MCF7 = assay: as above; type: cell-based; details: Homo sapiens, 10^−5 M, 72 hours of incubation, control condition = 100%, mean value, read-out: mean optical density as percentage of control, MCF7
Description: as §1, §2, §3, §4

PC-3 = assay: as above; type: cell-based; details: Homo sapiens, 10^−5 M, 72 hours of incubation, control condition = 100%, mean value, read-out: mean optical density as percentage of control, PC-3
Description: as §1, §2, §3, §4

A549 = assay: as above; type: cell-based; details: Homo sapiens, 10^−5 M, 72 hours of incubation, control condition = 100%, mean value, read-out: mean optical density as percentage of control, A549
Description: as §1, §2, §3, §4

LoVo = assay: as above; type: cell-based; details: Homo sapiens, 10^−5 M, 72 hours of incubation, control condition = 100%, mean value, read-out: mean optical density as percentage of control, LoVo
Description: as §1, §2, §3, §4

U-87MG = assay: as above; type: cell-based; details: Homo sapiens, U-87 MG; 10^−5 M, 72 hours of incubation, control condition = 100%, mean value; read-out: mean optical density as percentage of control, U-87MG
Description: as §1, §2, §3, §4

[1] = Determination of the maximum tolerated dose (MTD); details: B6D2F1/Jico, mouse, in vivo, ip; single intraperitoneal administration, doses 2.5 to 160 mg/kg, survival over 14 days
Description: The evaluation of the maximum tolerated dose was performed on 4- to 6-week-old B6D2F1/Jico mice. The compounds were administered intraperitoneally at increasing doses ranging from 2.5 to 160 mg/kg. The value of the MTD (expressed in mg/kg) is determined from the observation of the survival rate of the animals over a 14-day period after a single administration of the product under consideration. The change in weight of the animals is also monitored during this period. When the MTD value is greater than 160 mg/kg, the MTD value is considered as being 160 mg/kg by default.

SW1088 = assay: MTT test, cytotoxic activity on non-clonogenic cell lines; type: cell-based; details: Homo sapiens, 10^−5 M, 72 hours of incubation, control condition = 100%, mean value, read-out: mean optical density as percentage of control, SW1088
Description: as §1, §2, §3
SW1088 (code ATCC: HTB-12) which is an astro-cytoma,
as §4

J82 = assay: as above; type: cell-based; details: Homo sapiens, 10^−5 M, 72 hours of incubation, control condition = 100%, mean value, read-out: mean optical density as percentage of control, J82
Description: as §1, §2, §3
(§5) J82 (code ATCC: HTB-1) and T24 (code ATCC: HTB-4) which are two bladder cancers,
as §4

T24 = assay: as above; type: cell-based; details: Homo sapiens, T-24; 10^−5 M, 72 hours of incubation, control condition = 100%, mean value; read-out: mean optical density as percentage of control, T24
Description: as §1, §2, §3, §5, §4

| Compound | viability at 10 µM (HCT-15) [%] | viability at 10 µM (T-47D) [%] | viability at 10 µM (U-373MG) [%] | viability at 10 µM (A-427) [%] | viability at 10 µM (MCF7) [%] | viability at 10 µM (PC-3) [%] | viability at 10 µM (A549) [%] | viability at 10 µM (LoVo) [%] | viability at 10 µM (U-87MG) [%] | MTD at 14 day [1] [mg/kg] | viability at 10 µM (SW1088) [%] | viability at 10 µM (J82) [%] | viability at 10 µM (T24) [%] |
| --- | --- | --- | --- | --- | --- | --- | --- | --- | --- | --- | --- | --- | --- |
| CCN(CC)C(=O)Cn1cc(-c2ccc(OC)cc2)c(=O)c2c(OC)ccc(OC)c21 [CRL8380, N,N-Diethyl-2-[5,8-dimethoxy-3-(4-methoxyphenyl)-4-oxo-1,4-dihydro-1-quinolinyl]acetamide] | 103 | 88.1 | 101 | 89.3 | 102 | 102 | 95 | 108 | 87.5 | > 160 | 100 | 98.9 | 94.9 |
| CCOC(=O)Cn1cc(-c2ccc(OC)cc2)c(=O)c2c(OC)ccc(OC)c21 [CRL8381, Ethyl 2-[5,8-dimethoxy-3-(4-methoxyphenyl)-4-oxo-1,4-dihydro-1-quinolinyl]acetate] | 90.5 | 92.6 | 91.8 | 84.2 | 67.2 | 79.1 | 73.8 | 105 | 48.1 | > 160 | 55.9 | 90.9 | 83.2 |
| COc1ccc(-c2cn(CCN(C)C)c3c(OC)ccc(OC)c3c2=O)cc1 [CRL8382, N-[3-(Dimethylamino)ethyl]-5,8-dimethoxy-3-(4-methoxyphenyl)-1,4-dihydro-4-quinolinone] | 93.1 | 94.7 | 101 | 89.2 | 93 | 100 | 90.4 | 96.7 | 59.2 | > 160 | 118 | 95.6 | 99.7 |
| COc1ccc(OC)c2c1c(=O)c(-c1ccccc1)cn2C [CRL8383, 5,8-Dimethoxy-1-methyl-3-phenyl-1,4-dihydro-4-quinolinone] | 100 | 75.3 | 83.5 | 92.1 | 85 | 88.3 | 84.1 | 89.1 | 69.5 | > 160 | 75.9 | 94.6 | 180 |
| COc1ccc(-c2c[nH]c3c(OC)ccc(O)c3c2=O)cc1 [CRL8391, 5-Hydroxy-8-methoxy-3-(4-methoxyphenyl)-1,4-dihydro-4-quinolinone] | 80.6 | 99.3 | 93.5 | 80.5 | 97.3 | 80 | 88.3 | 87.2 | 74 | > 160 | 92.5 | 99.6 | 101 |
| COc1ccc(-c2cn(C)c3c(OC)ccc(O)c3c2=O)cc1 [CRL8392, 5-Hydroxy-8-methoxy-3-(4-methoxyphenyl)-1-methyl-1,4-dihydro-4-quinolinone] | 77.4 | 68.6 | 90.2 | 49.7 | 74 | 51.6 | 77.6 | 79.7 | 82.7 | > 160 | 89.8 | 70.6 | 63 |
| CCc1cc(OC)cc2c1c(=O)c(-c1ccc(OC)cc1)cn2C [CRL8393, 5-Ethyl-7-methoxy-3-(4-methoxyphenyl)-1-methyl-1,4-dihydro-4-quinolinone] | 41.8 | 68.8 | 74.7 | 23.7 | 89.7 | 87.3 | 93 | 84.6 | 89.9 | > 160 | 82.8 | 97.9 | 95.3 |
| COc1ccc(-c2cn(C)c3cc(OC)cc(-c4ccccc4)c3c2=O)cc1 [CRL8394, 7-Methoxy-3-(4-methoxyphenyl)-1-methyl-5-phenyl-1,4-dihydro-4-quinolinone] | 37.7 | 94.3 | 73.5 | 38.9 | 78 | 83.2 | 52.9 | 45.1 | 42.2 | > 160 | 68.5 | 93.5 | 92.9 |
| CCOC(=O)CCn1cc(-c2ccc(OC)cc2)c(=O)c2c(OC)cc(OC)cc21 [CRL8404] | 93.7 | 66.7 | 104 | 93.3 | 93.4 | 99.7 | 93.5 | 90.7 | 91.5 | > 160 | 72.1 | 83.8 | 59.8 |
| COc1ccc(-c2cn(C)c3c(OC)ccc(-c4ccccc4)c3c2=O)cc1 [CRL8405, 8-Methoxy-3-(4-methoxyphenyl)-1-methyl-5-phenyl-1,4-dihydro-4-quinolinone] | 15.9 | 77.1 | 28.8 | 19.4 | 68.2 | 85.5 | 32 | 32.3 | 25.8 | > 160 | 40.8 | 93.9 | 57.8 |
| COc1ccc(-c2cn(CCC#N)c3cc(OC)cc(OC)c3c2=O)cc1 [CRL8412, 3-[5,7-Dimethoxy-3-(4-methoxyphenyl)-4-oxo-1,4-dihydro-1-quinolinyl]propanenitrile] | 83.6 | 109 | 80.8 | 83.7 | 99.1 | 104 | 84.5 | 77 | 83.4 | > 160 | 105 | 94.2 | 100 |
